Numbers after ± are expanded uncertainties.
Assay: molar heat capacity at constant pressure
Settings: 101.33 kPa, Crystal 1, DSC

O=[N+]([O-])[O-].O=[N+]([O-])[O-].[Ca+2] [calcium nitrate]
Settings	molar heat capacity at constant pressure [J/K/mol]
588.78 K	184.89 ± 13
589 K	182.82 ± 13
589.78 K	184.99 ± 13
590 K	182.96 ± 13
590.78 K	185.09 ± 13
591 K	183.01 ± 13
591.78 K	185.18 ± 13
592 K	183.11 ± 13
592.78 K	185.28 ± 13
593 K	183.23 ± 13
593.78 K	185.38 ± 13
594 K	183.3 ± 13
594.78 K	185.47 ± 13
595 K	183.39 ± 13
595.78 K	185.57 ± 13
596 K	183.46 ± 13
596.78 K	185.66 ± 13
597 K	183.59 ± 13
597.78 K	185.76 ± 13
598 K	183.69 ± 13
598.78 K	185.85 ± 13
599 K	183.86 ± 13
599.78 K	185.95 ± 13
600 K	183.94 ± 13
600.78 K	186.04 ± 13
601 K	184.09 ± 13
601.78 K	186.13 ± 13
602 K	184.37 ± 13
602.78 K	186.22 ± 13
603 K	184.48 ± 13
603.78 K	186.31 ± 13
604 K	184.5 ± 13
604.78 K	186.4 ± 13
605 K	184.57 ± 13
605.78 K	186.49 ± 13
606 K	184.76 ± 13
606.78 K	186.58 ± 13
607 K	184.8 ± 13
607.78 K	186.67 ± 13
608 K	184.92 ± 13
608.78 K	186.76 ± 13
609 K	184.95 ± 13
609.78 K	186.85 ± 13
610 K	185 ± 13
610.78 K	186.93 ± 13
611 K	185.16 ± 13
611.78 K	187.02 ± 13
612 K	185.17 ± 13
612.78 K	187.1 ± 13
613 K	185.37 ± 13
613.78 K	187.19 ± 13
614 K	185.43 ± 13
614.78 K	187.28 ± 13
615 K	185.38 ± 13
615.78 K	187.37 ± 13
616 K	185.46 ± 13
616.78 K	187.46 ± 13
617 K	185.59 ± 13
617.78 K	187.56 ± 13
618 K	185.67 ± 13
618.78 K	187.65 ± 13
619 K	185.79 ± 13
619.78 K	187.75 ± 13
620 K	185.94 ± 13
620.78 K	187.84 ± 13
621 K	185.97 ± 13
621.78 K	187.94 ± 13
622 K	185.98 ± 13
622.78 K	188.03 ± 13
623 K	186.1 ± 13
623.78 K	188.13 ± 13
624 K	186.22 ± 13
624.78 K	188.23 ± 13
625 K	186.24 ± 13
625.78 K	188.32 ± 13
626 K	186.32 ± 13
626.78 K	188.42 ± 13
627 K	186.29 ± 13
627.78 K	188.51 ± 13
628 K	186.36 ± 13
628.78 K	188.61 ± 13
629 K	186.58 ± 13
629.78 K	188.7 ± 13
630 K	186.72 ± 13
630.78 K	188.8 ± 13
631 K	186.76 ± 13
631.78 K	188.9 ± 13
632 K	186.86 ± 13
632.78 K	189 ± 13
633 K	186.9 ± 13
633.78 K	189.1 ± 13
634 K	187.01 ± 13
634.78 K	189.2 ± 13
635 K	187.13 ± 13
635.78 K	189.3 ± 13
636 K	187.08 ± 13
636.78 K	189.41 ± 13
637 K	187.29 ± 13
637.78 K	189.51 ± 13
638 K	187.33 ± 13
638.78 K	189.61 ± 13
639 K	187.55 ± 13
639.78 K	189.71 ± 13
640 K	187.7 ± 13
640.78 K	189.82 ± 13
641 K	187.58 ± 13
641.78 K	189.92 ± 13
642 K	187.69 ± 13
642.78 K	190.01 ± 13
643 K	187.72 ± 13
643.78 K	190.11 ± 13
644 K	187.93 ± 13
644.78 K	190.2 ± 13
645 K	188.1 ± 13
645.78 K	190.29 ± 13
646 K	188.11 ± 13
646.78 K	190.39 ± 13
647 K	188.18 ± 13
647.78 K	190.49 ± 13
648 K	188.31 ± 13
648.78 K	190.58 ± 13
649 K	188.36 ± 13
649.78 K	190.69 ± 13
650 K	188.66 ± 13
650.78 K	190.8 ± 13
651 K	188.76 ± 13
651.78 K	190.9 ± 13
652 K	188.78 ± 13
652.78 K	191.02 ± 13
653 K	188.91 ± 13
653.78 K	191.13 ± 13
654 K	188.99 ± 13
654.78 K	191.25 ± 13
655 K	189.03 ± 13
655.78 K	191.36 ± 13
656 K	189.11 ± 13
656.78 K	191.46 ± 13
657 K	189.18 ± 13
657.78 K	191.57 ± 13
658 K	189.28 ± 13
658.78 K	191.67 ± 13
659 K	189.43 ± 13
659.78 K	191.77 ± 13
660 K	189.5 ± 13
660.78 K	191.87 ± 13
661 K	189.61 ± 13
661.78 K	191.96 ± 13
662 K	189.79 ± 13
662.78 K	192.06 ± 13
663 K	189.99 ± 13
663.78 K	192.15 ± 13
664 K	190.04 ± 13
664.78 K	192.23 ± 13
665 K	190.04 ± 13
665.78 K	192.32 ± 13
666 K	190.16 ± 13
666.78 K	192.4 ± 13
667 K	190.23 ± 13
667.78 K	192.49 ± 13
668 K	190.12 ± 13
668.78 K	192.56 ± 13
669 K	190.21 ± 13
669.78 K	192.64 ± 13
670 K	190.28 ± 13
670.78 K	192.72 ± 13
671 K	190.33 ± 13
671.78 K	192.79 ± 13
672 K	190.55 ± 13
672.78 K	192.86 ± 13
673 K	190.57 ± 13
673.78 K	192.94 ± 13
674 K	190.71 ± 13
674.78 K	193.03 ± 13
675 K	190.83 ± 13
675.78 K	193.12 ± 13
676 K	190.98 ± 13
676.78 K	193.22 ± 13
677 K	191.19 ± 13
677.78 K	193.31 ± 13
678 K	191.02 ± 13
678.78 K	193.41 ± 13
679 K	190.93 ± 13
679.78 K	193.5 ± 13
680 K	191.02 ± 13
680.78 K	193.6 ± 13
681 K	191.22 ± 13
681.78 K	193.69 ± 13
682 K	191.4 ± 13
682.78 K	193.78 ± 13
683 K	191.29 ± 13
683.78 K	193.87 ± 14
684 K	191.45 ± 13
684.78 K	193.96 ± 14
685 K	191.66 ± 13
685.78 K	194.03 ± 14
686 K	191.74 ± 13
686.78 K	194.08 ± 14
687 K	191.8 ± 13
687.78 K	194.13 ± 14
688 K	191.86 ± 13
688.78 K	194.18 ± 14
689 K	191.92 ± 13
689.78 K	194.23 ± 14
690 K	192.07 ± 13
690.78 K	194.31 ± 14
691 K	192.16 ± 13
691.78 K	194.39 ± 14
692 K	192.21 ± 13
692.78 K	194.47 ± 14
693 K	192.34 ± 13
693.78 K	194.54 ± 14
694 K	192.63 ± 13
694.78 K	194.6 ± 14
695 K	192.66 ± 13
695.78 K	194.65 ± 14
696 K	192.73 ± 13
696.78 K	194.69 ± 14
697 K	192.85 ± 13
697.78 K	194.72 ± 14
698 K	192.92 ± 13
698.78 K	194.76 ± 14
699 K	192.96 ± 13
699.78 K	194.82 ± 14
700 K	193.02 ± 13
700.78 K	194.88 ± 14
701 K	192.93 ± 13
701.78 K	194.97 ± 14
702 K	193.11 ± 13
702.78 K	195.08 ± 14
703 K	193.19 ± 13
703.78 K	195.21 ± 14
704 K	193.21 ± 13
704.78 K	195.34 ± 14
705 K	193.35 ± 13
705.78 K	195.47 ± 14
706 K	193.66 ± 14
706.78 K	195.61 ± 14
707 K	193.92 ± 14
707.78 K	195.75 ± 14
708 K	194.3 ± 14
708.78 K	195.89 ± 14
709 K	194.69 ± 14
709.78 K	196.04 ± 14
710 K	194.54 ± 14
710.78 K	196.23 ± 14
711 K	194.48 ± 14
711.78 K	196.47 ± 14
712 K	194.48 ± 14
712.78 K	196.76 ± 14
713 K	194.61 ± 14
713.78 K	197.06 ± 14
714.78 K	197.32 ± 14
715.78 K	197.53 ± 14
716.78 K	197.7 ± 14
717.78 K	197.7 ± 14
718.78 K	197.46 ± 14
